Source: patent US9018257B2, “5-aminolevulinic acid derivatives, methods for their preparation and uses thereof” (Bar Ilan University, priority 2011, dated 2015)

Assays:
K562 cells [1] = assay: MTT viability / proliferation of K562 cells; format: cell-based, human; details: 96 hours
Experimental: Cells are grown in 24 wells plate in a volume of 0.5 mL and treated as indicated for 96 hours. Then, 77 μL of 5 mg/mL MTT (3-[4,5-dimethylthiazol-2-yl]-2,5-diphenyltetrazolium bromide, (Sigma, Israel)) is added to each well for 2 hours. Afterwards, 400 μL of DMF solution (100 gr SDS dissolved in 250 mL dd H2O with 250 mL of DMF) is added for 4 hours. Absorbance is then measured in 570 nm using a Tecan spectrophotometer (NeoTec, Canada).
To evaluate the effect of various tested compounds on cell proliferation, K562 cells were treated for 96 hours and their viability was evaluated by MTT as detailed above.

α-globin [2] = assay: α-globin mRNA, quantitative real-time PCR, K562 cells; format: cell-based, human; details: 0.5 mM, 72 hours (peak)
Experimental: Globin RNAs are quantified by quantitative real time polymerase chain reaction, (qRT-PCR) using SYBR I Green (Applied Biosystems). The cDNA is generated from cell culture or tissues using a PCR purification kit (Qiagen, Valencia, Calif., USA). The qRT-PCR is performed in triplicate and is repeated in at least three separate experiments.
(§1) Total RNA (1 μg) was primed by oligo dT and reverse-transcribed by Verso cDNA kit according to the manufacturer's protocol (Thermo Scientific, West Palm Beach, USA). Quantitative PCR was done on a Step One Plus thermocycler (Applied Byosystems, Van Allen Way, CA, USA). The comparative threshold method was used to calculate the relative gene expression. Values were normalized against glyceraldehyde 3-phosphate dehydrogenase (GAPDH) for the different genes. Real time PCR was performed with Syber Green (Kapa Biosystems, Woburn, Mass., USA) using the following primers: […]
(§2) K562 cells are grown as described above and incubated with 0.5 mM of various compounds for 96 hours. Total heme content in the cells is evaluated. In addition, a globin mRNA and protein expression levels are evaluated using Quantitative real-time PCR and Western blot analysis, respectively.

PBGD mRNA = assay: PBGD mRNA, quantitative real-time PCR, K562 cells; format: cell-based, human; details: 0.5 mM, after 48-96 hours
Experimental: as §1
Relative quantification of gene expression was determined by the comparative threshold method (ÄCT), as described previously (Livak K J, Schmittgen T D). Analysis of relative gene expression data using real-time quantitative PCR and the 2(−Delta Delta C(T)) Method. Expression of the Gapdh mRNA in each individual sample was used to normalize the dataset.
(§3) K562 cells are grown as described above and incubated with 0.5 mM of various compounds for 96 hours. Activity of PBGD is evaluated as described above. Expression level of the PBGD protein is evaluated using Western blot analysis (as detailed above). Expression level of PBGD mRNA are evaluated using Quantitative real-time PCR.

K562 cells [3] = assay: Intracellular total heme assay in K562 cells; format: cell-based, human; details: 0.5 mM, 96 hours, vs ALA alone, BA alone or mixture
Experimental: The method for quantitative determination of total heme in cell lysates is performed using hemin as a standard. The “total heme” or “endogenous heme” measured in these assays includes bound and free heme. Following treatments, 100 or 500 μg of cell lysate was added to 100 μL orthotolidine reagent (0.25 gr orthotolidine (Sigma-Aldrich, Israel) dissolved in 80 mL glacial acetic acid (Sigma-Aldrich, Israel) and 10 mL dd H2O). Heme is oxidized to a green product by adding 100 μL of 1.2% H2O2 to the mixture for 10 minutes incubation in the dark. The first oxidation product was further oxidized to a yellow product by adding 0.5 mL of a 1:9 v/v solution of diluted acetic acid. Absorbance of the second product was read at 430 nm using a spectrophotometer (Tecan Trading AG, Switzerland).
as §2

Balb-c mice = assay: Doxorubicin induced anemia in mice, blood hemoglobin; format: in vivo; details: male Balb-c mice, Dox 4 mg/kg ip once a week + 50 mg/kg ip compound, day 19; vs Dox alone
Experimental: In an additional setting 8 weeks old male Balb-c mice were divided to two groups, Group 1 received 4 mg/kg ip dose of Doxorubicin (Dox) once a week and Group 2 received the same Doxorubicin treatment and in addition the mice were treated with 50 mg/kg ip dose of the tested compound three times a week. Termination was done on day 19, blood samples were drawn by retro-orbital venipuncture under anesthesia. Hemoglobin levels in heparinized whole blood were determined using Drabkints reagent and standard hemoglobin obtained from Sigma-Aldrich and prepared and stored as instructed by the manufacturer.
In vivo 8 weeks old male Balb-c mice were divided to two groups, Group 1 received 4 mg/kg ip dose of doxorubicin (Dox) once a week and Group 2 received the same Dox treatment and in addition the mice were treated with 50 mg/kg ip dose of compound of formula (I-a) (in this example, 1-(butyryloxy)ethyl-5-amino-4-oxopentanoate, (AlaAcBu)) three times a week. The experiment was terminated on day 19, blood samples were drawn by retro-orbital venipuncture under anesthesia. Hemoglobin levels in heparinized whole blood were determined using Drabkin's reagent and standard hemoglobin obtained from Sigma-Aldrich and prepared and stored as instructed by the manufacturer.

α-globin [4] = assay: α-globin protein expression, Western blot, K562 cells; format: cell-based, human; details: 0.5 mM, 96 hours, compared to any other treatment
Experimental: (§4) Proteins are quantified and equalized using the Bradford assay (Bio-Rad, CA, USA) and resolved on a 12% polyacrylamide gel. Afterwards, proteins are transferred from the gel onto nitrocellulose membranes (Bio-Rad, CA, USA) using a semi-dry transfer apparatus (Bio-Rad, CA, USA). After blocking the membranes with phosphate-buffered saline+0.2% Tween-20 (PBST) (Sigma-Aldrich, Israel) and 5% skim-milk (BD-Diagnostic Systems, MD, USA), membranes are incubated with primary rabbit anti-human PBGD antibody (a generous gift from flemeBiotech, Sweden), or with rabbit anti-α-Hb (H80) (Santa Cruz Biotechnology, CA, USA), or with HRP-conjugated mouse anti-β-actin antibody (C4) (Santa Cruz Biotechnology, CA, USA) diluted in blocking solution for 1 h in room temperature or for overnight in 4° c., washed with PBST and incubated with secondary antibodies diluted in blocking solution. Immuno-reactive proteins were visualized with enhanced chemiluminiscence detection EZ-ECL kit (Biological Industries, Israel) used as recommended by the manufacturer.
as §2

Ferrochelatase = Ferrochelatase protein expression in K562 cells; format: cell-based, human; details: vs ALA, BA or their mixture
Experimental: K562 cells are fixed and stained with primary antibodies anti-αHb or anti-Glycophorin A and are tagged using the compatible secondary antibodies-Alexa 488-conjugated anti-rabbit antibody donkey anti-goat (Invitrogen, Oregon, USA) as recommended by Cell Signaling (MA, USA). Fluorescence is measured in 10,000 cells using FACS with an excitation wavelength of 488 nm and emission wavelength of 530 nm. K562 cells were suspended in paraformaldehyde 4% for 10 min at 37° C., followed by incubation with chilled methanol (final concentration 90%) for 30 min on ice. Cells were washed twice with PBS−/− and blocked with BSA 0.5% in PBS−/− for 10 min at room temperature. Afterwards, the cells were incubated in 50 μL of the primary antibody goat polyclonal Ferrochelatase (Santa Cruz Biotechnology, Santa Cruz, Calif., USA) or goat polyclonal glycophorin A (Santa Cruz Biotechnology, Santa Cruz, Calif., USA) (1:50 in BSA 0.5%) or anti-a Hb for 30 min at room temperature, washed once with PBS−/−, and incubated with a fluorescent donkey anti-goat IgG secondary antibody (1:1000) (Invitrogen, Carlsbad, Calif., USA) for 30 min at room temperature. The cells were washed again with PBS−/− and fluorescence was measured in 10,000 cells per sample using a FACS (Becton-Dickinson, San Jose, Calif., USA) with an excitation wavelength of 488 nm and emission wavelength 530 nm. […]

Glycophorin A = Glycophorin A expression by flow cytometry (erythroblast differentiation); format: cell-based, human; details: K562 cells, 0.5 mM, 96 hours; compared to any other treatment
Experimental: K562 cells are fixed and stained with primary antibodies anti-αHb or anti-Glycophorin A and are tagged using the compatible secondary antibodies-Alexa 488-conjugated anti-rabbit antibody donkey anti-goat (Invitrogen, Oregon, USA) as recommended by Cell Signaling (MA, USA). Fluorescence is measured in 10,000 cells using FACS with an excitation wavelength of 488 nm and emission wavelength of 530 nm. K562 cells were suspended in paraformaldehyde 4% for 10 min at 37° C., followed by incubation with chilled methanol (final concentration 90%) for 30 min on ice. Cells were washed twice with PBS−/− and blocked with BSA 0.5% in PBS−/− for 10 min at room temperature. […] The cells were washed again with PBS−/− and fluorescence was measured in 10,000 cells per sample using a FACS (Becton-Dickinson, San Jose, Calif., USA) with an excitation wavelength of 488 nm and emission wavelength 530 nm.
K562 cells are grown as described above and incubated with 0.5 mM of various compounds for 96 hours. […] Glycophorin A content is measured using immunostaining analyzed by flow cytometry, as detailed above. […]

[5] = system: porphobilinogen deaminase (PBGD); assay: PBGD enzymatic activity assay in K562 cells; format: cell-based, human; details: 0.5 mM, 96 hours, vs ALA alone, BA alone or mixture
Experimental: K562 cells (1×10^6) are treated for 96 hours. PBGD activity is assayed as previously described by determining the fluorescence of uroporphyrin formed by the light-induced oxidation of uroporphyrinogen, which is the immediate product of the enzymatic deamination of 4 porphobilinogen molecules. In short, cells are harvested following treatment, and washed twice with PBS. After centrifugation, the pellet was resuspended in 200 μL 50 mM Tris buffer (pH 8.2) with 0.2% Triton. The cells are homogenized on ice and protein levels are quantified using the Bradford method. 400 μg protein was taken out in duplicates for incubation in 300 μL of 50 mM Tris buffer (pH 8.2) containing 0.2% Triton, with final concentration of 85 μM PBG (Sigma, Israel) for 1 hour at 37° C. The reaction is stopped by addition of 1.2 mL 15.6% TCA. […] The samples fluorescence is read using a Synergy spectrofluorometer (BioTek Instruments, VT, USA) with an excitation wavelength of 404 nm, and an emission wavelength of 595 nm. PBGD specific activity is calculated as activity percentage of control.
as §3

PBGD = PBGD protein expression, Western blot, K562 cells; format: cell-based, human; details: 0.5 mM, 96 hours, compared to untreated cells or cells treated with ALA
Experimental: as §4, §3

K562 cells [6] = assay: TEM ultrastructure of K562 cells (cellular maturation); format: cell-based, human; details: 96 hours
Experimental: Analysis is performed on bone-marrow, spleen and liver, processed as described in [17]. Briefly, cells are treated for 96 hours (hrs), harvested and fixed with Karnovsky fixative. The samples are washed in 0.1 M cacodylate buffer and fixed with 1% OsO4 in 0.1 M sodium cacodylate buffer for 1 hour (h). The samples are then dehydrated in graded ethanol solutions and propylene oxide and embedded in agar mix. Thin sections are cut, stained with uranyl acetate and lead citrate, and observed under a transmission electron microscope.
To evaluate morphologic changes associated with the effect of compound of formula (I-a) (in this example, AlaAcBu) and the ALA+HDACI (in this example, BA) mixture on K562 cells, the cells were examined by immunohystochemical experiments, as shown in FIG. 7.

K562 cells [7] = assay: PpIX synthesis in K562 cells (FACS fluorescence); format: cell-based, human; details: 0.5 mM, 96 hours, vs 5-ALA alone, BA alone or their mixture
Experimental: Following treatment, cells are harvested, collected by centrifugation, washed twice and resuspended in 0.5 mL with sterile PBS. PpIX fluorescence is measured in 10,000 cells per sample using a FACS (Becton-Dickinson, CA, USA) with an excitation wavelength of 488 nm and emission wavelength>670 nm. Images of the stained cells are examined using a fluorescent microscope (IX70) (Olympus Tokyo, Japan) using an excitation filter of 330-385 nm and barrier filter at 420 nm […] PpIX fluorescence is measured at the FL-3 channel of FACS Calibur. Additionally, pictures of cells are taken using a fluorescent microscope-Nikon TE200-E, to show PpIX fluorescence.

HDAC class I and II = assay: Cellular HDAC activity (Fluor de Lys) in U-251 cells; format: cell-based, human; details: 2 hours with substrate, read-out: IC50 of HDAC inhibition
Experimental: Inhibition of the activity HDAC class I and II in the cells is performed with the fluorescent kit (AK-503, Biomol, USA). The cells are seeded (10×10^3 cells/well) in 96-well plates (in quadruplicates) in growth medium for 24 hours and then treated. Incubation with the HDAC substrate (Fluor de Lys™) is for 2 hours. The reaction is terminated by the addition of Fluor de Lys™ developer and 2 μM trichostatin A (TSA). The % of inhibition is calculated from the ratio of the fluorescence (measured at 355 nm excitation and 460 nm emission) in the treated compared to the untreated control culture.
In order to test the direct effect of octanoic acid, as well as co-drugs of formula (I-a) (which comprise octanoic acid as the carboxylic acid), on the activity of cellular HDAC, the activity of HDAC is evaluated by incubating U-251 cells for 2 hours with the cell-permeable HDAC fluorometric substrate for HDAC class I and II (Fluor de Lys™), as detailed above.

NCC(=O)CCC(=O)O [ALA, 5-aminolevulinic acid]
cell viability (MTT, mitochondria activity % of control) (K562 cells [1]): did not affect cell viability
α-globin mRNA expression, fold elevation (α-globin [2]): 2.2 fold
PBGD mRNA level (PBGD mRNA): significantly decreased

CCCC(=O)OC(C)OC(=O)CCC(=O)CN (stereo not drawn) [AlaAcBu, 1-(butyryloxy)ethyl 5-amino-4-oxopentanoate]
fold increase in total heme content (K562 cells [3]): higher
hemoglobin level in blood (Balb-c mice): ameliorate the Dox-induced suppression of erythropoiesis
protein expression levels of α-globin (α-globin [4]): markedly elevated
inhibition of cell proliferation (MTT) (K562 cells [1]): 33%
α-globin mRNA expression, fold elevation (α-globin [2]): 11.3 fold
Ferrochelatase protein expression (Ferrochelatase): significantly higher level
relative expression of Glycophorin A (percentage of control) (Glycophorin A): highest increase
relative activity of PGBD compared to control [5]: higher
expression levels of PGBD (protein, Western blot) (PBGD): increased similarly
ultrastructural changes identified by TEM (K562 cells [6]): chromatin condensation, cytosolic hemoglobinization
intensity of the fluorescence generated by PpIX (K562 cells [7]): substantially higher

CCCC(=O)O [BA, butyric acid]
cell viability (MTT, mitochondria activity % of control) (K562 cells [1]): even increased it
α-globin mRNA expression, fold elevation (α-globin [2]): 9.1 fold
expression levels of PGBD (protein, Western blot) (PBGD): increased similarly

CCCCCCCC(=O)O [octanoic acid]
IC50 (HDAC class I and II): 500 µM
